Measurements published in ChEMBL document CHEMBL1128160, “An attempt to synthesize prostanoid thromboxane A2 antagonists with an additional prostacyclin like quality” (Bioorg Med Chem Lett, 1995).
pIC50: −log10 of the molar value.

How the values were obtained:
[1] = target: T1, Thromboxane A2 receptor (Homo sapiens) (UniProt P21731); assay: Competition factor was evaluated for Thromboxane A2 receptor binding affinity CF = (IC50-test)/(IC50-standard)
T1 sequence (whole entry): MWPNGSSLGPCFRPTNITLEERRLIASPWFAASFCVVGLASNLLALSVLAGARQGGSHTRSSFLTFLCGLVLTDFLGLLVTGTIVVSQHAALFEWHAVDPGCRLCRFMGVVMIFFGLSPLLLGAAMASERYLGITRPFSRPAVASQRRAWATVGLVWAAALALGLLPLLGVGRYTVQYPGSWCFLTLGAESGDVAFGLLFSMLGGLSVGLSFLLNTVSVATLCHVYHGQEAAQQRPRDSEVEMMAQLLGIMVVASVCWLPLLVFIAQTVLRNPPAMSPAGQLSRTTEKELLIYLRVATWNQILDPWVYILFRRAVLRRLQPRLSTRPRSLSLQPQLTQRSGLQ

Homo sapiens = species: Homo sapiens; assay: Inhibition of ADP-induced aggregation of human platelet rich plasma; type: functional
[2] = target: T1, Thromboxane A2 receptor (Homo sapiens); assay: Competition factor for Thromboxane A2 receptor binding affinity CF = (IC50-test)/(IC50-standard)
[3] = target: T1, Thromboxane A2 receptor (Homo sapiens); assay: Competition factor was evaluated for Thromboxane A2 receptor binding affinity CF = (IC50-test)/(IC50-standard) by using [3H]iloprost agonist at 10 nM

| CF [1] | pIC50 (Homo sapiens) | CF [2] | CF [3] | SMILES |
| --- | --- | --- | --- | --- |
| 0.62 | 5.77 | – | – | O=C(O)CCC/C=C\C[C@H]1/C(=N/OCC2CCCCC2)CC[C@@H]1NS(=O)(=O)c1ccc(Cl)cc1 |
| – | 5.80 | 200 | – | O=C(O)CC/C=C\C[C@@H]1[C@@H](NS(=O)(=O)c2ccc(F)cc2)CC[C@@H]1O |
| – | 6.19 | 2.1 | – | O=C(O)CCC/C=C\C[C@@H]1[C@@H](NS(=O)(=O)c2ccc(F)cc2)CC[C@@H]1O |
| – | 5.74 | 31 | – | O=C(O)CC/C=C\C[C@@H]1[C@@H](NS(=O)(=O)c2ccc(Cl)cc2)CC[C@@H]1O |
| – | 6.72 | 0.68 | – | O=C(O)CCC/C=C\C[C@@H]1[C@@H](NS(=O)(=O)c2ccc(Cl)cc2)CC[C@@H]1O |
| – | 5.22 | 26 | – | O=C(O)CCC/C=C\C[C@@H]1[C@H](O)CC[C@H]1NS(=O)(=O)c1ccc(F)cc1 |
| – | 6.30 | 7 | – | Cc1ccc(S(=O)(=O)N[C@H]2CC[C@H](O)[C@@H]2C/C=C\CCCC(=O)O)cc1 |
| – | 5.24 | 340 | – | Cc1ccc(S(=O)(=O)N[C@@H]2CC[C@@H](O)[C@H]2C/C=C\CCCC(=O)O)cc1 |
| – | 6.21 | 0.13 | – | O=C(O)CCC/C=C\C[C@H]1/C(=N/OCc2ccc(C(F)(F)F)cc2)CC[C@@H]1NS(=O)(=O)c1ccc(F)cc1 |
| – | 4.77 | 4 | – | O=C(O)CCC/C=C\C[C@H]1/C(=N/OC(c2ccccc2)c2ccccc2)CC[C@@H]1NS(=O)(=O)c1ccc(Cl)cc1 |
| – | 6.17 | 6.5 | – | Cc1ccc(S(=O)(=O)N[C@H]2CCC(=O)[C@@H]2C/C=C\CCCC(=O)O)cc1 |
| – | 6.30 | 6.4 | – | O=C(O)CCC/C=C\C[C@H]1C(=O)CC[C@@H]1NS(=O)(=O)c1ccc(F)cc1 |
| – | 6.74 | < 1 | – | Cc1ccc(S(=O)(=O)N[C@H]2CC/C(=N\OCc3ccc(C(F)(F)F)cc3)[C@@H]2C/C=C\CCCC(=O)O)cc1 |
| – | 5.74 | 0.5 | – | O=C(O)CCC/C=C\C[C@H]1/C(=N/OCC2CCCCC2)CC[C@@H]1NS(=O)(=O)c1ccc(F)cc1 |
| – | 5.66 | 85 | – | O=C(O)CCC/C=C\C[C@@H]1[C@H](O)CC[C@H]1NS(=O)(=O)c1ccc(Cl)cc1 |
| – | 6.22 | 1 | – | Cc1ccc(S(=O)(=O)N[C@H]2CC/C(=N\OCC3CCCCC3)[C@@H]2C/C=C\CCCC(=O)O)cc1 |
| – | 6.70 | 0.07 | – | O=C(O)CCC/C=C\C[C@H]1/C(=N/OCc2ccc(C(F)(F)F)cc2)CC[C@@H]1NS(=O)(=O)c1ccc(Cl)cc1 |
| – | 6.19 | 2.6 | – | O=C(O)CCC/C=C\C[C@H]1C(=O)CC[C@@H]1NS(=O)(=O)c1ccc(Cl)cc1 |
| – | 4.77 | 6.9 | – | O=C(O)CCC/C=C\C[C@H]1/C(=N/OC(c2ccccc2)c2ccccc2)CC[C@@H]1NS(=O)(=O)c1ccc(F)cc1 |
| – | 5.25 | 4.5 | – | Cc1ccc(S(=O)(=O)N[C@H]2CC/C(=N\OC(c3ccccc3)c3ccccc3)[C@@H]2C/C=C\CCCC(=O)O)cc1 |
| – | 5.60 | 135 | – | Cc1ccc(S(=O)(=O)N[C@H]2CC[C@H](O)[C@@H]2C/C=C\CCC(=O)O)cc1 |
| – | 6.10 | 175 | 25 | C[C@@H]1CC/C(=N\OC(c2ccccc2)c2ccccc2)[C@H]1C/C=C\CCCC(=O)O |
